Legend:
[1] = Stability (degradation) of pharmaceutical preparations at 40° C. and 70% relative humidity; assay type: physicochemical; conditions: three-month period, compared to bromocriptine mesylate
Description: Pharmaceutical preparations of bromocriptine mesylate and bromocriptine citrate are exposed to atmospheric conditions (40° C. and 70% relative humidity) and the degradation of the bromocriptine is assessed over time.

[2] = Aqueous solubility/dissolution of bromocriptine citrate relative to bromocriptine mesylate; assay type: physicochemical; conditions: various pH conditions, compared to bromocriptine mesylate
Description: Solid samples of equal amounts of bromocriptine mesylate and bromocriptine citrate added, under various pH conditions, to equal volumes of water or water/organic solutions in different vessels and the dissolution of the bromocriptine samples (aqueous solubility) was assessed over time.

In the case of “2-bromo-alpha-ergocryptine citrate [bromocriptine citrate]”, the “degradation of the bromocriptine” value [1] is reported as “substantially less”, the rate of dissolution ([2]; solid samples in water or water/organic solutions) is reported as “dissolve much more quickly” and the “aqueous solubility (mg of bromocriptine dissolved per ml of water)” value ([2]; water or water/organic solutions) is reported as “significantly greater solubility”.
